Test results taken from patent US11028041B2, “Second generation GRP94-selective inhibitors” (University of Kansas, priority 2017, dated 2021).

Legend:
[1] = target: Hsp90α (Homo sapiens (Human), UniProt P07900); assay: Fluorescence polarization assay against Hsp90α; format: binding; conditions: FITC-GDA tracer, 100 μM highest concentration tested, average of two independent experiments ± SEM, read-out: Apparent Kd Hsp90α
Method: Fluorescence Polarization. The assay was performed in 96-well black, flat-bottom plates with a final volume of 100 μL. 25 μL of assay buffer (20 mM HEPES, pH 7.3, 50 mM KCl, 5 mM MgCl2, 20 mM Na2MoO4, 2 mM DTT, 0.1 mg/mL BGG, and 0.01% NP-40) were added, followed by 25 μL of assay buffer containing 6 nM FITC-GDA (fluorescent tracer, stock in DMSO, diluted in assay buffer) and 50 μL of assay buffer containing 10 nM of either Grp94 or Hsp90α were added to each well. For each plate, wells containing buffer only (background), tracer in buffer only (low polarization control) and protein, tracer, and 1% DMSO (final concentration, high polarization control) were included. Compounds were then added with a final concentration of DMSO=1%. Plates were incubated at 4° C. with rocking for 24 h. […] Polarization values were correlated to % tracer bound and compound concentrations.

[2] = test system: MDA-MB-231 cells; assay: Anti-proliferation MTS/PMS assay, MDA-MB-231; format: cell-based; conditions: Homo sapiens, 72 h, average of two independent experiments ± SEM
Method: (§1) Compounds or vehicle were administered in DMSO (1% DMSO final concentration) and the plates were placed back in the incubator. After 72 h, the % viable cells were determined using the MTS/PMS cell proliferation kit (Promega) per the manufacturer's instructions. Cells treated with vehicle were normalized to 100% viable and compound treated wells were adjusted accordingly.

[3] = test system: PC3-MM2 cells; assay: Anti-proliferation MTS/PMS assay, PC3-MM2; format: cell-based; conditions: Homo sapiens, PC3MM2, 72 h, average of two independent experiments ± SEM
Method: as §1

[4] = test system: SK-MEL-28 cells; assay: Anti-proliferation MTS/PMS assay, SK-MEL-28; format: cell-based; conditions: Homo sapiens, 72 h, average of two independent experiments ± SEM
Method: as §1

[5] = test system: A549 cells; assay: Anti-proliferation MTS/PMS assay, A549; format: cell-based; conditions: Homo sapiens, 72 h, average of two independent experiments ± SEM
Method: as §1

[6] = test system: MDA-MB-231 cells; conditions: 500 nM, after 24 h
Method: (§2) Wound Healing Scratch Assay. Cells were counted via Trypan blue exclusion and seeded in 12-well plates at 200,000 cells/mL/well and returned to the incubator for 24 h. Scratches were made with a 0.1-10 μL pipette tip, then cells were washed with PBS and fresh media was added. […] Plates were returned to the incubator until 24 h pictures were taken. Images were processed and % migration determined via ImageJ. All experiments were performed in quadruplicate.

[7] = test system: PC3-MM2 cells; conditions: 500 nM, after 24 h
Method: as §2

[8] = test system: SK-MEL-28 cells; assay: Wound healing scratch assay, SK-MEL-28; format: cell-based; conditions: after 24 h
Method: (§3) Cell Culture. […] Wound Healing Scratch Assay. […] Images were processed and % migration determined via ImageJ. All experiments were performed in quadruplicate.

[9] = test system: A549 cells; assay: Wound healing scratch assay, A549; format: cell-based; conditions: 500 nM, 24 h
Method: as §3

[10] = test system: Akt; assay: Western blot analysis, cytosolic Hsp90-dependent client protein Akt; format: cell-based; conditions: MDA-MB-231, PC3-MM2, SK-MEL-28, A549; 24 h; geldanamycin at 0.5 μM
Method: (§4) Western Blot Analysis. […] Cells were harvested in cold PBS and lysed using MPER (Thermo Scientific) supplemented with protease inhibitors (Roche) according the manufacturer's instructions. Cell lysates were obtained by centrifugation at 15,000 rpm for 10 min at 4° C. Protein concentrations were determined using the Pierce BCA assay kit following the manufacturer's instructions. Equal amounts of protein were separated via gel electrophoresis under reducing conditions (10% acrylamide gels) then transferred to PVDF membranes and immunoblotted with the corresponding primary antibodies. Membranes were then incubated with the correct HRP-labeled secondary antibody, developed with a chemiluminescent substrate, and visualized.

[11] = test system: Hsp70; assay: Western blot analysis, Hsp70 induction; format: cell-based; conditions: MDA-MB-231, PC3-MM2, SK-MEL-28, A549; 24 h; geldanamycin at 0.5 μM
Method: as §4

Structure (SMILES)	Kd [1] [nM]	other results
COC(=O)c1c(O)cc(O)c(Cl)c1CCc1ccccc1Cc1ccccc1Cl [Compound 27, methyl 3-chloro-2-(2-(2-chlorobenzyl)phenethyl)-4,6-dihydroxybenzoate]	> 100000	–
COC(=O)c1c(O)cc(O)c(Cl)c1CCc1ccccc1Cc1ccc(Cl)cc1 [Compound 29, methyl 3-chloro-2-(2-(4-chlorobenzyl)phenethyl)-4,6-dihydroxybenzoate]	> 100000	–
COC(=O)c1c(O)cc(O)c(Cl)c1CCc1ccccc1Cc1ccc(F)cc1 [Compound 30, methyl 3-chloro-2-(2-(4-fluorobenzyl)phenethyl)-4,6-dihydroxybenzoate]	–	GI50 [2]: 22.4 ± 1.9 µM; GI50 [3]: 18.3 ± 2.3 µM; GI50 [4]: 16.6 ± 1.2 µM; GI50 [5]: 16.7 ± 1.2 µM; % migration [6]: 38-40%; % migration [7]: 38-40%; effect on migration [8]: demonstrated a susceptibility to Grp94 inhibition; anti-migratory effect [9]: demonstrated an anti-migratory effect; degradation of Akt [10]: did not induce the degradation of Akt; induction of Hsp70 [11]: nor did it result in the induction of Hsp70
COC(=O)c1c(O)cc(O)c(Cl)c1CCc1ccc(N)cc1Cc1ccccc1 [Compound 20, methyl 2-(4-amino-2-benzylphenethyl)-3-chloro-4,6-dihydroxybenzoate]	340 ± 70	–
COC1=C2C[C@@H](C)C[C@H](OC)[C@H](O)[C@@H](C)/C=C(\C)[C@H](OC(N)=O)[C@@H](OC)/C=C\C=C(/C)C(=O)NC(=CC1=O)C2=O [geldanamycin, reference compound]	–	degradation of Akt [10]: induced the degradation of Akt; induction of Hsp70 [11]: increased the levels of Hsp70
COC(=O)c1c(O)cc(O)c(Cl)c1CCc1ccccc1Cc1ccccc1OC [Compound 26, methyl 3-chloro-4,6-dihydroxy-2-(2-(2-methoxybenzyl)phenethyl)benzoate]	> 100000	–
COC(=O)c1c(O)cc(O)c(Cl)c1CCc1ccccc1Cc1cccc(Cl)c1 [Compound 28, methyl 3-chloro-2-(2-(3-chlorobenzyl)phenethyl)-4,6-dihydroxybenzoate]	44600 ± 2000	–
COC(=O)c1c(O)cc(O)c(Cl)c1CCc1ccc(OC)cc1Cc1ccccc1 [Compound 17, methyl 2-(2-benzyl-4-methoxyphenethyl)-3-chloro-4,6-dihydroxybenzoate]	2600 ± 600	–
COC(=O)c1c(O)cc(O)c(Cl)c1CCc1cccc(O)c1Cc1ccccc1 [Compound 24, methyl 2-(2-benzyl-3-hydroxyphenethyl)-3-chloro-4,6-dihydroxybenzoate]	2000 ± 200	–
COC(=O)c1c(O)cc(O)c(Cl)c1CCc1cc(N)ccc1Cc1ccccc1 [Compound 19, methyl 2-(5-amino-2-benzylphenethyl)-3-chloro-4,6-dihydroxybenzoate]	1000 ± 100	–
COC(=O)c1c(O)cc(O)c(Cl)c1CCc1ccc(O)cc1Cc1ccccc1 [Compound 23, methyl 2-(2-benzyl-4-hydroxyphenethyl)-3-chloro-4,6-dihydroxybenzoate]	920 ± 30	–
COC(=O)c1c(O)cc(O)c(Cl)c1CCc1cc(O)ccc1Cc1ccccc1 [Compound 22, methyl 2-(2-benzyl-5-hydroxyphenethyl)-3-chloro-4,6-dihydroxybenzoate]	2100 ± 100	–
COC(=O)c1c(O)cc(O)c(Cl)c1CCc1cccc(Cc2ccccc2)c1 [Compound 7, methyl 2-(3-benzylphenethyl)-3-chloro-4,6-dihydroxybenzoate]	> 100000	–
CCOc1ccccc1Cc1ccccc1CCc1c(Cl)c(O)cc(O)c1C(=O)OC [Compound 25, methyl 3-chloro-2-(2-(2-ethoxybenzyl)phenethyl)-4,6-dihydroxybenzoate]	> 100000	–
COC(=O)c1c(O)cc(O)c(Cl)c1CCc1cccc(OC)c1Cc1ccccc1 [Compound 18, methyl 2-(2-benzyl-3-methoxyphenethyl)-3-chloro-4,6-dihydroxybenzoate]	13700 ± 1400	–
COC(=O)c1c(O)cc(O)c(Cl)c1CCc1ccccc1Cc1ccccc1 [Compound 6, methyl 2-(2-benzylphenethyl)-3-chloro-4,6-dihydroxybenzoate]	20700 ± 500	–
COC(=O)c1c(O)cc(O)c(Cl)c1CCc1cc(OC)ccc1Cc1ccccc1 [Compound 16, methyl 2-(2-benzyl-5-methoxyphenethyl)-3-chloro-4,6-dihydroxybenzoate]	2200 ± 200	–
